Experimental data published in the NIST ThermoML archive (doi:10.1016/j.tca.2013.05.007).

Columns and labels:
[1] = molar heat capacity at constant pressure; conditions: 101.33 kPa, Liquid, Large sample (1 g) DSC
[2] = DTA

CCCC[n+]1cccc(C)c1.O=S(=O)([N-]S(=O)(=O)C(F)(F)F)C(F)(F)F
[1]
Conditions | molar heat capacity at constant pressure [J/K/mol]
293.15 K | 541
294.15 K | 542
295.15 K | 544
296.15 K | 546
297.15 K | 547
298.15 K | 548
299.15 K | 550
300.15 K | 551
301.15 K | 552
302.15 K | 553
303.15 K | 554
304.15 K | 555
305.15 K | 556
306.15 K | 557
307.15 K | 558
308.15 K | 559
309.15 K | 560
310.15 K | 561
311.15 K | 562
312.15 K | 563
313.15 K | 564
314.15 K | 564
315.15 K | 565
316.15 K | 566
317.15 K | 567
318.15 K | 568
319.15 K | 569
320.15 K | 570
321.15 K | 570
322.15 K | 571
323.15 K | 572
324.15 K | 573
325.15 K | 574
326.15 K | 575
327.15 K | 576
328.15 K | 577
329.15 K | 578
330.15 K | 579
331.15 K | 580
332.15 K | 581
333.15 K | 582

Conditions | Glass transition temperature [°C]
[2] | -85

CCC[n+]1cccc(C)c1.O=S(=O)([N-]S(=O)(=O)C(F)(F)F)C(F)(F)F
[1]
Conditions | molar heat capacity at constant pressure [J/K/mol]
293.15 K | 510
294.15 K | 511
295.15 K | 513
296.15 K | 514
297.15 K | 516
298.15 K | 517
299.15 K | 518
300.15 K | 519
301.15 K | 520
302.15 K | 521
303.15 K | 522
304.15 K | 523
305.15 K | 524
306.15 K | 525
307.15 K | 526
308.15 K | 527
309.15 K | 528
310.15 K | 529
311.15 K | 530
312.15 K | 531
313.15 K | 532
314.15 K | 532
315.15 K | 533
316.15 K | 534
317.15 K | 535
318.15 K | 536
319.15 K | 536
320.15 K | 537
321.15 K | 538
322.15 K | 539
323.15 K | 540
324.15 K | 541
325.15 K | 541
326.15 K | 542
327.15 K | 543
328.15 K | 544
329.15 K | 545
330.15 K | 546
331.15 K | 547
332.15 K | 548
333.15 K | 549

Conditions | Glass transition temperature [°C]
[2] | -88

CCCCn1cc[n+](C)c1.O=S(=O)([O-])C(F)(F)F [1-butyl-3-methylimidazolium trifluoromethanesulfonate]
Conditions | Normal melting temperature [°C] | molar heat capacity at constant pressure [J/K/mol]
[1], 323.15 K | – | 456
[1], 324.15 K | – | 457
[1], 325.15 K | – | 458
[1], 326.15 K | – | 459
[1], 327.15 K | – | 460
[1], 328.15 K | – | 461
[1], 329.15 K | – | 462
[1], 330.15 K | – | 463
[1], 331.15 K | – | 464
[1], 332.15 K | – | 465
[1], 333.15 K | – | 466
[1], 334.15 K | – | 467
[1], 335.15 K | – | 467
[1], 336.15 K | – | 468
[1], 337.15 K | – | 469
[1], 338.15 K | – | 470
[1], 339.15 K | – | 471
[1], 340.15 K | – | 472
[1], 341.15 K | – | 473
[1], 342.15 K | – | 474
[1], 343.15 K | – | 475
[1], 344.15 K | – | 476
[1], 345.15 K | – | 477
[1], 346.15 K | – | 477
[1], 347.15 K | – | 478
[1], 348.15 K | – | 479
[1], 349.15 K | – | 480
[1], 350.15 K | – | 481
[1], 351.15 K | – | 481
[1], 352.15 K | – | 482
[1], 353.15 K | – | 483
[2], Crystal | 12 | –

CC[n+]1cccc(C)c1.O=S(=O)([N-]S(=O)(=O)C(F)(F)F)C(F)(F)F
Conditions | Normal melting temperature [°C] | molar heat capacity at constant pressure [J/K/mol]
[1], 293.15 K | – | 484
[1], 294.15 K | – | 486
[1], 295.15 K | – | 487
[1], 296.15 K | – | 489
[1], 297.15 K | – | 490
[1], 298.15 K | – | 491
[1], 299.15 K | – | 493
[1], 300.15 K | – | 494
[1], 301.15 K | – | 495
[1], 302.15 K | – | 496
[1], 303.15 K | – | 497
[1], 304.15 K | – | 498
[1], 305.15 K | – | 499
[1], 306.15 K | – | 500
[1], 307.15 K | – | 501
[1], 308.15 K | – | 502
[1], 309.15 K | – | 502
[1], 310.15 K | – | 503
[1], 311.15 K | – | 504
[1], 312.15 K | – | 505
[1], 313.15 K | – | 506
[1], 314.15 K | – | 507
[1], 315.15 K | – | 507
[1], 316.15 K | – | 508
[1], 317.15 K | – | 509
[1], 318.15 K | – | 510
[1], 319.15 K | – | 510
[1], 320.15 K | – | 511
[1], 321.15 K | – | 512
[1], 322.15 K | – | 513
[1], 323.15 K | – | 514
[1], 324.15 K | – | 514
[1], 325.15 K | – | 515
[1], 326.15 K | – | 516
[1], 327.15 K | – | 517
[1], 328.15 K | – | 518
[1], 329.15 K | – | 519
[1], 330.15 K | – | 519
[1], 331.15 K | – | 520
[1], 332.15 K | – | 521
[1], 333.15 K | – | 522
[2], Crystal | -1 | –

CCCCn1cc[n+](C)c1.N#CN=C=[N-] [1-butyl-3-methylimidazolium dicyanamide]
Conditions | Normal melting temperature [°C] | Triple point temperature [K] | molar heat capacity at constant pressure [J/K/mol]
[1], 293.15 K | – | – | 372
[1], 294.15 K | – | – | 373
[1], 295.15 K | – | – | 374
[1], 296.15 K | – | – | 375
[1], 297.15 K | – | – | 375
[1], 298.15 K | – | – | 376
[1], 299.15 K | – | – | 377
[1], 300.15 K | – | – | 377
[1], 301.15 K | – | – | 378
[1], 302.15 K | – | – | 378
[1], 303.15 K | – | – | 379
[1], 304.15 K | – | – | 379
[1], 305.15 K | – | – | 380
[1], 306.15 K | – | – | 380
[1], 307.15 K | – | – | 381
[1], 308.15 K | – | – | 381
[1], 309.15 K | – | – | 382
[1], 310.15 K | – | – | 382
[1], 311.15 K | – | – | 382
[1], 312.15 K | – | – | 383
[1], 313.15 K | – | – | 383
[1], 314.15 K | – | – | 384
[1], 315.15 K | – | – | 384
[1], 316.15 K | – | – | 384
[1], 317.15 K | – | – | 385
[1], 318.15 K | – | – | 385
[1], 319.15 K | – | – | 385
[1], 320.15 K | – | – | 386
[1], 321.15 K | – | – | 386
[1], 322.15 K | – | – | 387
[1], 323.15 K | – | – | 387
[1], 324.15 K | – | – | 388
[1], 325.15 K | – | – | 388
[1], 326.15 K | – | – | 388
[1], 327.15 K | – | – | 389
[1], 328.15 K | – | – | 389
[1], 329.15 K | – | – | 390
[1], 330.15 K | – | – | 390
[1], 331.15 K | – | – | 391
[1], 332.15 K | – | – | 391
[1], 333.15 K | – | – | 392
[2], Crystal 1 | -6 | – | –
[2], Crystal 2 | – | 225 | –

Conditions | Glass transition temperature [°C]
[2] | -92

CCCC[n+]1cccc(C)c1.O=S(=O)([O-])C(F)(F)F [1-butyl-3-methylpyridinium trifluoromethanesulfonate]
Conditions | Normal melting temperature [°C] | molar heat capacity at constant pressure [J/K/mol]
[1], 323.15 K | – | 461
[1], 324.15 K | – | 462
[1], 325.15 K | – | 464
[1], 326.15 K | – | 465
[1], 327.15 K | – | 467
[1], 328.15 K | – | 468
[1], 329.15 K | – | 469
[1], 330.15 K | – | 471
[1], 331.15 K | – | 472
[1], 332.15 K | – | 473
[1], 333.15 K | – | 474
[1], 334.15 K | – | 475
[1], 335.15 K | – | 476
[1], 336.15 K | – | 478
[1], 337.15 K | – | 479
[1], 338.15 K | – | 480
[1], 339.15 K | – | 481
[1], 340.15 K | – | 482
[1], 341.15 K | – | 483
[1], 342.15 K | – | 485
[1], 343.15 K | – | 486
[1], 344.15 K | – | 487
[1], 345.15 K | – | 488
[1], 346.15 K | – | 489
[1], 347.15 K | – | 490
[1], 348.15 K | – | 491
[1], 349.15 K | – | 492
[1], 350.15 K | – | 493
[1], 351.15 K | – | 494
[1], 352.15 K | – | 495
[1], 353.15 K | – | 496
[2], Crystal 1 | 30 | –
[2], Metastable crystal | -6 | –

Conditions | Glass transition temperature [°C]
[2] | -76
